{"source": "paper PMC5736936", "about": "“Xylopine Induces Oxidative Stress and Causes G2/M Phase Arrest, Triggering Caspase-Mediated Apoptosis by p53-Independent Pathway in HCT116 Cells” (Oxidative Medicine and Cellular Longevity, 2017)", "system": "HCT116 cells", "experiment": "Cellular reactive oxygen species levels (DCF-DA)", "type": "cell-based, human", "experimental": "The levels of reactive oxygen species (ROS) were measured according to previously described using 2′,7′-dichlorofluorescin diacetate (DCF-DA) (Sigma-Aldrich Co.). In brief, cells were treated with xylopine for 1 and 3 h. Then, the cells were collected, washed with saline, and resuspended in FACS tubes with saline containing 5 μM DCF-DA for 30 min. Finally, the cells were washed with saline and the cell fluorescence was determined by flow cytometry as described above. The protection assay using the antioxidant NAC and catalase (Sigma-Aldrich Co.) was performed. In brief, the cells were pretreated for 1 h with 5 mM NAC or 2000 UI catalase and then incubated with xylopine in the established concentration for 1 h. The cells were then trypsinized and the ROS levels were measured as described above."}
{"smiles": "COc1ccc2c(c1)C[C@@H]1NCCc3cc4c(c-2c31)OCO4", "note": "[XYL, xylopine]", "values": [{"measurement": "xylopine-induced increase in intracellular ROS level on cotreatment with NAC", "setting": "HCT116, 5 mM NAC 1 h, then 14 μM xylopine 1 h", "value": "prevented"}, {"measurement": "xylopine-induced increase in intracellular ROS levels on cotreatment with catalase", "setting": "HCT116, 2000 UI catalase 1 h, then 14 μM xylopine 1 h", "value": "prevented"}, {"measurement": "ROS levels", "setting": "HCT116, DCF-DA, 1 and 3 h", "value": "caused an increase in the ROS levels"}]}
